Four compounds from PubChem BioAssay AID2060490 (Molecular Pharmacology Branch, DTP, NCI, 2025) can be followed below.

For this assay, the system named is 885512-296-R-J2-PDC complex spheroid viability. As to the kind of experiment: Anticancer human tumor 885512-296-R-J2-PDC patient-derived breast carcinoma cell line growth inhibition [GQUAD]. As to conditions: for viability, T/C: stronger effect = lower value. The text has this: DNA G-quadruplex Stabilizer Agents in Combinations in Complex Spheroids
A high-throughput screen of multi-cell type tumor spheroids was designed to identify active combinations of DNA G-quadruplex stabilizer agents and targeted small molecules. Complex spheroids include a stromal component modeled by human endothelial cells (HUVEC) and fibroblasts modeled by human mesenchymal stem cells (MSCs). The concentration ranges selected for each drug and investigational agent were based upon clinically achievable concentrations if the clinical Cmax of the agent was known.
Compounds. The drugs and investigational agents: pidnarulex (CX-5461; NSC782164), APTO-253 (NSC789042), BRACO-19 (NSC847499), peposertib (NSC802822), ceralasertib (NSC780249), elimusertib (NSC800525), camonsertib (NSC841442), AZD-1390 (NSC803789), olaparib (NSC753686), talazoparib (NSC767125), ART-558 (NSC835418), sotorasib (NSC818433), MRTX-1133 (NSC836407), SN-38 (NSC673596), topotecan (NSC609699), etoposide (NSC141540), doxorubicin (NSC123127), gemcitabine (NSC613327), 5-fluorouracil (NSC19893), paclitaxel (NSC125973), vemurafenib (NSC761431), panobinostat (NSC761190), R-306465 (JNJ-16241199; NSC773264), adavosertib (NSC754352), TP-3654 (NSC805149), carboplatin (NSC241240), KSQ-4279 (NSC840948), and staurosporine (NSC755774) were obtained from the National Cancer Institute (NCI) Developmental Therapeutics Program Chemical Repository (34). The FDA-approved anticancer drug set is available from the NCI Developmental Therapeutics Program. […] The stock solutions were prepared in dimethyl sulfoxide (DMSO, Sigma-Aldrich, St. Louis, MO, cat. D2650) at 800-fold the tested concentration and stored at -70 degrees C prior to their use. All drugs and investigational agents were tested over a range starting from a high concentration at or near the clinical Cmax and decreasing in half-log increments. If the clinical Cmax for an agent had not been determined, the highest concentration tested was 10 microM.
2.3 Cell Culture. All cells were maintained in an incubator at 37 degrees C and 5% CO2 with 95% humidity. The PDC lines were cultured according to standard operating procedures established by the NCI PDMR. All PDCs were thawed and cultured in Matrigel-coated flasks prepared with a working solution of 1X Ham's F-12 nutrient mix, without supplementation (Invitrogen, cat. 11765054), 100 U/mL penicillin-streptomycin (Invitrogen, cat. 15140122), and 2.5% Matrigel (Corning Inc., cat. 354248) for the first three passages. The 857933-349-R-J2-PDC line was cultured in 6C/Colon 1B media, which includes advanced DMEM/F-12 (Thermo Fisher Scientific, cat. 12634028), 10 mM HEPES (Thermo Fisher Scientific, cat. 15630080), 1X GlutaMAX supplement (Thermo Fisher Scientific, cat. 35050061), 0.1 mg/mL primocin (InvivoGen, cat. ant-pm-2), 10% defined fetal bovine serum, heat inactivated (HyClone Laboratories Inc., cat. SH30070.03HI), 50% L-WRN conditioned media (ATCC, cat. CRL-3276), 1.25 mM N-Acetyl-L-cysteine (Sigma-Aldrich, cat. A9165), 10 mM nicotinamide (Sigma-Aldrich, cat. N0636), 1X B-27 supplement (Thermo Fisher Scientific, cat. 17504044), 1X N-2 supplement (Thermo Fisher Scientific, cat. 17502048), 10 microM Y-27632 dihydrochloride (Tocris Bioscience, cat. 1254), and 50 ng/mL human EGF recombinant protein (Thermo Fisher Scientific, cat. PHG0311). The 485176-168-R4-J1-PDC line was cultured in Panc media, which includes all 6C/Colon 1B media components plus 100 ng/mL human FGF-10 (Thermo Fisher Scientific, cat. 100-26), 500 nM SB-431542 (Selleckchem, cat. S1067), and gastrin (Tocris, cat. 3006).
[…]

Where “and” joins values, the source holds several entries; their conditions need not be identical. Equal entries are not always repeated.
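Also: spheroids exposed to the compounds for one week.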
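For viability, T/C in this document: percent of tumor spheroid viability relative to DMSO vehicle control wells.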

Broadly, the viability, T/C is the result in the treated group divided by that in the control group, in per cent. The term IC50 denotes the concentration that inhibits the measured activity by half. Turning to `Nc1ccn(C2OC(CO)C(O)C2(F)F)c(=O)n1` (stereo unspecified), the viability, T/C is 14.6% and 8.23% and 13.1% (compound 0.0316 µM); 4.17% and 2.77% and 2.12% (compound 0.1 µM); 2.96% and 2.39% and 3.6% (compound 0.316 µM); 3.23% and 3.33% and 3.21% (compound 1 µM); 4.11% and 2.94% and 3.73% (compound 3.16 µM); 3.17% and 3.4% and 3.47% (compound 10 µM). Moreover, the IC50 (curve of compound) was less than 31.6 nM.
In the case of `O=c1[nH]cc(F)c(=O)[nH]1`, the viability, T/C by setting is: (compound 0.0316 µM) 94.2% and 107% and 96.5%; (compound 0.1 µM) 102% and 97.5% and 105%; (compound 0.316 µM) 113% and 107% and 99.3%; (compound 1 µM) 123% and 89.3% and 95.8%; (compound 3.16 µM) 71.7% and 58.4% and 66%; (compound 10 µM) 52.8% and 55% and 55.4%. Besides, the half-maximal inhibitory concentration (IC50) (curve of compound) is more than 10000 nM.
Take `C#Cc1c(F)ccc2cc(O)cc(-c3ncc4c(N5CC6CCC(C5)N6)nc(OCC56CCCN5CC(F)C6)nc4c3F)c12` (stereo unspecified) + Cc1cnc(CNC(=O)c2c(=O)c3ccc(N4CCCN(C)CC4)nc3n3c2sc2ccccc23)cn1: the IC50 runs as follows: (curve of first compound, second compound 0.0316 µM) more than 10000 nM; (curve of first compound, second compound 0.1 µM) more than 10000 nM; (curve of first compound, second compound 0.316 µM) less than 31.6 nM; (curve of first compound, second compound 1 µM) less than 31.6 nM; (curve of first compound, second compound 3.16 µM) less than 31.6 nM; (curve of first compound, second compound 10 µM) less than 31.6 nM. Besides, the viability, T/C by setting is: (second compound 0.0316 µM, first compound 0.0316 µM) 81.9%; (second compound 0.0316 µM, first compound 0.1 µM) 80.5%; (second compound 0.0316 µM, first compound 0.316 µM) 85.2%; (second compound 0.0316 µM, first compound 1 µM) 83.9%; (second compound 0.0316 µM, first compound 3.16 µM) 96.2%; (second compound 0.0316 µM, first compound 10 µM) 83.5%. Besides, the viability, T/C is 60.2% (second compound 0.1 µM, first compound 0.0316 µM); 60.3% (second compound 0.1 µM, first compound 0.1 µM); 69.4% (second compound 0.1 µM, first compound 0.316 µM); 59.8% (second compound 0.1 µM, first compound 1 µM); 66.5% (second compound 0.1 µM, first compound 3.16 µM); 56.5% (second compound 0.1 µM, first compound 10 µM). For the same compound, the viability, T/C is, setting by setting: (second compound 0.316 µM, first compound 0.0316 µM) 32.4%; (second compound 0.316 µM, first compound 0.1 µM) 26.6%; (second compound 0.316 µM, first compound 0.316 µM) 31.7%; (second compound 0.316 µM, first compound 1 µM) 34.7%; (second compound 0.316 µM, first compound 3.16 µM) 22.9%; (second compound 0.316 µM, first compound 10 µM) 31.9%. The viability, T/C runs as follows: (second compound 1 µM, first compound 0.0316 µM) 24.9%; (second compound 1 µM, first compound 0.1 µM) 23.8%; (second compound 1 µM, first compound 0.316 µM) 24.6%; (second compound 1 µM, first compound 1 µM) 28.2%; (second compound 1 µM, first compound 3.16 µM) 29.4%; (second compound 1 µM, first compound 10 µM) 23.9%. For the same compound, the viability, T/C is, setting by setting: (second compound 3.16 µM, first compound 0.0316 µM) 24.8%; (second compound 3.16 µM, first compound 0.1 µM) 32.1%; (second compound 3.16 µM, first compound 0.316 µM) 26.4%; (second compound 3.16 µM, first compound 1 µM) 28.7%; (second compound 3.16 µM, first compound 3.16 µM) 29.1%; (second compound 3.16 µM, first compound 10 µM) 9.52%. The viability, T/C is, setting by setting: (second compound 10 µM, first compound 0.0316 µM) 0.12%; (second compound 10 µM, first compound 0.1 µM) 0.16%; (second compound 10 µM, first compound 0.316 µM) 0.18%; (second compound 10 µM, first compound 1 µM) 0.13%; (second compound 10 µM, first compound 3.16 µM) 0.19%; (second compound 10 µM, first compound 10 µM) 0.16%.
On to `Cc1[nH]c2ccccc2c1CCNCc1ccc(/C=C/C(=O)NO)cc1`, for which the viability, T/C is, setting by setting: (compound 0.000999 µM) 108% and 90.8% and 92.3%; (compound 0.00316 µM) 93.8% and 86.2% and 86.1%; (compound 0.00999 µM) 96.1% and 71.2% and 73.6%; (compound 0.0316 µM) 112% and 42% and 57.7%; (compound 0.0999 µM) 94.9% and 25.6% and 28.9%.
